Source: paper PMC546329, “SIRT1 Regulates HIV Transcription via Tat Deacetylation” (PLoS Biology, 2005)

Biological target: T1, SIRT1 (Homo sapiens, UniProt Q96EB6)
T1 construct: FLAG-tagged SIRT1 immunoprecipitated from HEK 293 cells
T1 sequence (Q96EB6 2-747): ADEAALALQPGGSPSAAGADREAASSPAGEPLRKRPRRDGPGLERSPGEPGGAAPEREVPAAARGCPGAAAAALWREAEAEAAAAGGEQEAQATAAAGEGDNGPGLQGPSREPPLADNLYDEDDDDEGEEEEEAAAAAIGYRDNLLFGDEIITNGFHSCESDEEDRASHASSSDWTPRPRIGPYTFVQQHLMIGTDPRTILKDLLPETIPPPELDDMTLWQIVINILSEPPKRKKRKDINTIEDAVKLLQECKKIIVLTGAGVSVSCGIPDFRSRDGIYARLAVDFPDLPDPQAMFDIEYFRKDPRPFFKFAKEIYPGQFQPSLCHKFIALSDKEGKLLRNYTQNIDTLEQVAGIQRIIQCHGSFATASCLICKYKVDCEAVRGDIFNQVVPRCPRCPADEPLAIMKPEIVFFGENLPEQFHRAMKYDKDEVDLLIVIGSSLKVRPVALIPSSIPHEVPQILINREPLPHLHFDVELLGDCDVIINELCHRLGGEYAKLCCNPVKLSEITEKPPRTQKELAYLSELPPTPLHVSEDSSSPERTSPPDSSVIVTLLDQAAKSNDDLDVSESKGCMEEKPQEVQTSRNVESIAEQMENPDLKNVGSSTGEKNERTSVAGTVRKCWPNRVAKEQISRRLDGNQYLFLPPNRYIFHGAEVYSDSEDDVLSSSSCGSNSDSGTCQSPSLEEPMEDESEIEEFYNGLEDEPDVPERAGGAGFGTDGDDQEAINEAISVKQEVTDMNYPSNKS
Experiment: deacetylation of synthetic acetylated Tat by immunoprecipitated SIRT1 with or without […] NAD+, Western blot
Type: biochemical

NC(=O)c1ccc[n+]([C@@H]2O[C@H](COP(=O)([O-])OP(=O)(O)OC[C@H]3O[C@@H](n4cnc5c(N)ncnc54)[C@H](O)[C@@H]3O)[C@@H](O)[C@H]2O)c1 [NAD^+]
deacetylation of synthetic acetylated Tat by immunoprecipitated SIRT1 with or wi: The SIRT1-mediated deacetylation of Tat was dependent on NAD^+
